Read-outs that look alike come from different tables or passages of the source.
Tests used:
E. coli CsgA = biological target: T1, E. coli CsgA (Escherichia coli, UniProt P28307); assay: In vitro ThioflavinT assay of CsgA aggregation (CsgA ThT Assay); format: biochemical
T1 construct: made in house; host or cells: E. coli NEB 3016 slyD::kan, pET11d
In short: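 Purified C-terminal His-tagged CsgA, monomerised by desalting and 30-kDa filtration, at 2-20 μM with 20-40 μM ThT in 50 mM potassium phosphate pH 7.3, 1% DMSO, compounds 3.125-200 uM; room temperature, fluorescence (ex 438/em 495 nm) read every 15 min. Background-subtracted signal expressed as percent inhibition versus vehicle at 6-6.5 or 8-9 h, or as percent control AUC.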

[1] = system: CsgA gene expression (csgBAC promoter-GFP reporter) in E. coli UTI89; assay: In vitro live cell fluorescent reporter assay of CsgA transcription (Reporter Assay); format: cell-based
In short: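 Chromosomal single-copy csgBAC promoter–GFP reporter in E. coli UTI89, started at OD600 0.003 in YESCA broth with compound (0.14–100 μM, 1% DMSO), 20 h at 27 °C. GFP (ex 485/em 525 nm) background-subtracted and normalized to vehicle; IC50 and X[50] from curve fits. OD600 tracked growth effects.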

[2] = read-out: CsgA ThT Assay (10 μM CsgA) % Control AUC at 1005 minutes, 25 μM (activity range), CsgA 10 μM, black plates, compound 25 μM, 1005 minutes, class symbol
[3] = read-out: CsgA ThT Assay (10 μM CsgA) % Control AUC at 1005 minutes, 25 μM, mean AUC as % of DMSO control, CsgA 10 μM, black plates, compound 25 μM, 1005 minutes
[4] = read-out: CsgA ThT Assay (10 μM CsgA) % Control AUC at 1005 minutes, 100 μM (activity range), CsgA 10 μM, black plates, compound 100 μM, 1005 minutes, class symbol
[5] = read-out: CsgA ThT Assay (10 μM CsgA) % Control AUC at 1005 minutes, 100 μM, mean AUC as % of DMSO control, CsgA 10 μM, black plates, compound 100 μM, 1005 minutes
[6] = Escherichia coli, read-out: Reporter Assay Abs IC50 (activity range), median Abs IC50 in the CsgA reporter assay, class symbol
[7] = Escherichia coli, read-out: Reporter Assay Abs IC50 (μM), median Abs IC50 in the CsgA reporter assay, N/A = maximum expression reduction is <50% of control
[8] = read-out: CsgA ThT Assay (2 μM CsgA) % Control Bmax 25 μM, activity range, class symbol, CsgA 2 μM, white plates, compound 25 μM
[9] = read-out: CsgA ThT Assay (2 μM CsgA) % Control Bmax 25 μM, mean Bmax as percentage of DMSO control, CsgA 2 μM, white plates, compound 25 μM
[10] = read-out: CsgA ThT Assay (2 μM CsgA) % Control Bmax 100 μM, activity range, class symbol, CsgA 2 μM, white plates, compound 100 μM
[11] = read-out: CsgA ThT Assay (2 μM CsgA) % Control Bmax 100 μM, mean Bmax as percentage of DMSO control, CsgA 2 μM, white plates, compound 100 μM
[12] = Escherichia coli, read-out: Reporter Assay Abs IC50, activity range, class symbol
[13] = read-out: Reporter Assay Abs IC50 (activity range), median Abs IC50 in the CsgA reporter assay, class symbol

T1 sequence (P28307 23-151): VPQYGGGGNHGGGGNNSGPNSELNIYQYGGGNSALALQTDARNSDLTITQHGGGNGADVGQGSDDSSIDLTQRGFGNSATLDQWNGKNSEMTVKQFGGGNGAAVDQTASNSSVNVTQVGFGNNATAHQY

Structure (SMILES) | remaining activity at 25 µM (E. coli CsgA; [2]) | remaining activity at 25 µM (E. coli CsgA; [3]) | remaining activity at 100 µM (E. coli CsgA; [4]) | remaining activity at 100 µM (E. coli CsgA; [5]) | IC50 [1, 6] | IC50 [1, 7] | remaining activity at 25 µM (E. coli CsgA; [8]) | remaining activity at 25 µM (E. coli CsgA; [9]) | remaining activity at 100 µM (E. coli CsgA; [10]) | remaining activity at 100 µM (E. coli CsgA; [11]) | IC50 [1, 12] | IC50 [1, 13] | CsgA ThT Assay (10 μM CsgA) % Control AUC at 1005 minutes, 25 μM (activity range) (E. coli CsgA; CsgA 10 μM, black plates, compound 25 μM, 1005 minutes, class symbol) | CsgA ThT Assay (10 μM CsgA) % Control AUC at 1005 minutes, 100 μM (activity range) (E. coli CsgA; CsgA 10 μM, black plates, compound 100 μM, 1005 minutes, class symbol) | CsgA ThT Assay (10 μM CsgA) % Control AUC at 1005 minutes, 25 μM (E. coli CsgA; mean AUC as % of DMSO control, CsgA 10 μM, black plates, compound 25 μM, 1005 minutes) | CsgA ThT Assay (10 μM CsgA) % Control AUC at 1005 minutes, 100 μM (E. coli CsgA; mean AUC as % of DMSO control, CsgA 10 μM, black plates, compound 100 μM, 1005 minutes) | IC50 ([1]; read-out: Reporter Assay Abs IC50, median Abs IC50 in the CsgA reporter assay, N/A = maximum expression reduction is <50% of control)
CN1CC(C(=O)O)n2c(c(-c3cccc(C(F)(F)F)c3)c(Cc3cccc4ccccc34)c(NC3CCNCC3)c2=O)S1(=O)=O (stereo not drawn) [Compound 091, 2-methyl-8-(naphthalen-1-ylmethyl)-6-oxo-7-(piperidin-4-ylamino)-9-(3-(trifluoromethyl)phenyl)-3,4-dihydro-2H,6H-pyrido[1,2-e][1,2,5]thiadiazine-4-carboxylic acid 1,1-dioxide] | > 60% | 90% | > 60% | 65% | 4.6 to 10 µM | 5.6 µM |  |  |  |  |  |  |  |  |  |  | 
O=C(O)C1CN(Cc2ccccc2)c2c(-c3cccc(C(F)(F)F)c3)c(Cc3ccnc4ccccc34)c(Cl)c(=O)n21 (stereo not drawn) [Compound 206, 1-benzyl-6-chloro-5-oxo-7-(quinolin-4-ylmethyl)-8-(3-(trifluoromethyl)phenyl)-1,2,3,5-tetrahydroimidazo[1,2-a]pyridine-3-carboxylic acid] |  |  |  |  |  | 13.2 µM | > 60% | 64% | 31 to 60% | 54% | > 10 µM |  |  |  |  |  | 
CCCc1c(Cc2cccc3ccccc23)c(-c2cccc(C(F)(F)F)c2)c2n(c1=O)C(C(=O)O)CN(C)S2(=O)=O (stereo not drawn) [Compound 090, 2-methyl-8-(naphthalen-1-ylmethyl)-6-oxo-7-propyl-9-(3-(trifluoromethyl)phenyl)-3,4-dihydro-2H,6H-pyrido[1,2-e][1,2,5]thiadiazine-4-carboxylic acid 1,1-dioxide] | 31 to 60% | 54% | 11 to 31% | 30% | 4.6 to 10 µM | 5.9 µM |  |  |  |  |  |  |  |  |  |  | 
O=C(O)CC1CSc2c(-c3cccc(C(F)(F)F)c3)c(Cc3cccc4ccccc34)cc(=O)n21 (stereo not drawn) [Compound 129, 2-(7-(naphthalen-1-ylmethyl)-5-oxo-8-(3-(trifluoromethyl)phenyl)-2,3-dihydro-5H-thiazolo[3,2-a]pyridin-3-yl)acetic acid] | 11 to 31% | 28% | > 60% | 61% | 1.3 to 4.5 µM | 3.4 µM |  |  |  |  |  |  |  |  |  |  | 
Nc1c(Cc2cccc3ccccc23)c(-c2cccc(C(F)(F)F)c2)c2n(c1=O)C(C(=O)O)CN(CCCCO)S2(=O)=O (stereo not drawn) [Compound 099, 7-amino-2-(4-hydroxybutyl)-8-(naphthalen-1-ylmethyl)-6-oxo-9-(3-(trifluoromethyl)phenyl)-3,4-dihydro-2H,6H-pyrido[1,2-e][1,2,5]thiadiazine-4-carboxylic acid 1,1-dioxide] | 31 to 60% | 56% | 31 to 60% | 44% | > 10 µM | 17.6 µM |  |  |  |  |  |  |  |  |  |  | 
Nc1c(Cc2cccc3ccccc23)c(-c2cccc(C(F)(F)F)c2)c2n(c1=O)C(C(=O)O)CS2 (single isomer, unassigned) [Compound 020a, 6-amino-7-(naphthalen-1-ylmethyl)-5-oxo-8-(3-(trifluoromethyl)phenyl)-2,3-dihydro-5H-thiazolo[3,2-a]pyridine-3-carboxylic acid] | 11 to 31% | 27% | 11 to 31% | 20% |  | 4.4 µM |  |  |  |  |  | 1.3 to 4.5 µM |  |  |  |  | 
CN1CC(C(=O)O)n2c(c(-c3cccc(C(F)(F)F)c3)c(Cc3cccc4ccccc34)c(NC3CCOCC3)c2=O)S1(=O)=O (stereo not drawn) [Compound 072, 2-methyl-8-(naphthalen-1-ylmethyl)-6-oxo-7-((tetrahydro-2H-pyran-4-yl)amino)-9-(3-(trifluoromethyl)phenyl)-3,4-dihydro-2H,6H-pyrido[1,2-e][1,2,5]thiadiazine-4-carboxylic acid 1,1-dioxide] | 11 to 31% | 24% | < 10% | 10% | 4.6 to 10 µM | 6.9 µM |  |  |  |  |  |  |  |  |  |  | 
O=C(O)C1CN(Cc2ccccc2)c2c(-c3cccc(C(F)(F)F)c3)c(Cc3ccccc3)c(Cl)c(=O)n21 (stereo not drawn) [Compound 214, 1,7-dibenzyl-6-chloro-5-oxo-8-(3-(trifluoromethyl)phenyl)-1,2,3,5-tetrahydroimidazo[1,2-a]pyridine-3-carboxylic acid] |  |  |  |  |  | 1.8 µM | > 60% | 90% | > 60% | 84% | 1.3 to 4.5 µM |  |  |  |  |  | 
O=C(O)[C@H]1CN(Cc2ccccc2)c2c(-c3cccc(C(F)(F)F)c3)c(Cc3cccc4ccccc34)c(Br)c(=O)n21 (single isomer, unassigned) [Compound 190] |  |  |  |  |  | 1.6 µM | > 60% | 63% | 31 to 60% | 56% | 1.3 to 4.5 µM |  |  |  |  |  | 
O=C(O)C1CS(=O)(=O)c2c(-c3cccc(C(F)(F)F)c3)c(C(F)(F)c3cccc4ccccc34)cc(=O)n21 (stereo not drawn) [Compound 081, 7-(difluoro(naphthalen-1-yl)methyl)-5-oxo-8-(3-(trifluoromethyl)phenyl)-2,3-dihydro-5H-thiazolo[3,2-a]pyridine-3-carboxylic acid 1,1-dioxide] | 11 to 31% | 25% | 11 to 31% | 24% | > 10 µM | 16.5 µM |  |  |  |  |  |  |  |  |  |  | 
CCCCN1CC(C(=O)O)n2c(c(-c3cccc(C(F)(F)F)c3)c(Cc3cccc4ccccc34)cc2=O)S1(=O)=O (single isomer, unassigned) [Compound 021b, 2-butyl-8-(naphthalen-1-ylmethyl)-6-oxo-9-(3-(trifluoromethyl)phenyl)-3,4-dihydro-2H,6H-pyrido[1,2-e][1,2,5]thiadiazine-4-carboxylic acid 1,1-dioxide] |  |  |  |  |  |  |  |  |  |  |  | 1.3 to 4.5 µM | (++) (% control AUC of 31 to 60%) | (+) (% control AUC of greater than 60%) | 36% | 99% | 2.1 µM
CN1CC(C(=O)O)n2c(c(-c3cccc(C(F)(F)F)c3)c(Cc3cccc4ccccc34)c(C(O)CO)c2=O)S1(=O)=O (stereo not drawn) [Compound 101, 7-(1,2-dihydroxyethyl)-2-methyl-8-(naphthalen-1-ylmethyl)-6-oxo-9-(3-(trifluoromethyl)phenyl)-3,4-dihydro-2H,6H-pyrido[1,2-e][1,2,5]thiadiazine-4-carboxylic acid 1,1-dioxide] | > 60% | 61% | 11 to 31% | 15% | > 10 µM | 29 µM |  |  |  |  |  |  |  |  |  |  | 
CCCN1CC(C(=O)O)n2c(cc(Cc3cccc4ccccc34)c(NC3CCCC3)c2=O)S1(=O)=O (stereo not drawn) [Compound 006, 7-(cyclopentylamino)-8-(naphthalen-1-ylmethyl)-6-oxo-2-propyl-3,4-dihydro-2H,6H-pyrido[1,2-e][1,2,5]thiadiazine-4-carboxylic acid 1,1-dioxide] |  |  |  |  |  | 70 µM | > 60% | 66% | 31 to 60% | 34% | > 10 µM |  |  |  |  |  | 

Reference: patent US20230131899A1, “INHIBITORS OF MICROBIALLY INDUCED AMYLOID” (Axial Therapeutics, Inc., priority 2020, published 2023)
